Test results as given in patent US9416154B2, “5′-substituted nucleoside derivatives and methods of use thereof for the treatment of viral diseases” (priority 2011, dated 2016).

How the values were obtained:
[1] = biological target: HCV NS5B RNA-dependent RNA polymerase (1b-BKΔ55) (Hepatitis C virus genotype 1b (isolate BK) (HCV), UniProt P26663); assay: HCV NS5B polymerase inhibition assay (radiolabeled nucleotide incorporation); type: biochemical; conditions: 5 nM NS5B (1b-BKΔ55), [33P]-CTP incorporation, room temperature 1 hour
Chain of HCV NS5B RNA-dependent RNA polymerase (1b-BKΔ55) (P26663 2420-2955): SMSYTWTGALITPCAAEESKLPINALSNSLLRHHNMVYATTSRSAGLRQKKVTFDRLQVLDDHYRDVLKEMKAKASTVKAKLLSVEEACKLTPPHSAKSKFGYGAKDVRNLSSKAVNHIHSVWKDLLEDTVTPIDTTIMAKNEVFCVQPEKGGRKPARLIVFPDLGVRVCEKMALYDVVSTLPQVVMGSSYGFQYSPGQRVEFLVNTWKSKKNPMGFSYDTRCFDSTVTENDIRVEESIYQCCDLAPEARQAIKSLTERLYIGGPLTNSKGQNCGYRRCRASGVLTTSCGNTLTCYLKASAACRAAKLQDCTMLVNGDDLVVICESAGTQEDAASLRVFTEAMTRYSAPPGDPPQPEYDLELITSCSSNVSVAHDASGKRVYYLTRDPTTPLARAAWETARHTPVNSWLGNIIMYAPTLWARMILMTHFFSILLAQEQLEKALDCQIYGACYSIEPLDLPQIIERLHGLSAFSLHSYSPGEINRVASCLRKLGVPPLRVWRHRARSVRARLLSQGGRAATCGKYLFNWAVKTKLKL
Description: The ability of the nucleoside triphosphate derivatives to inhibit the enzymatic activity of the HCV NS5B RNA-dependent RNA polymerase was measured in a radiolabeled nucleotide incorporation assay modified from the method described in International Publication No. WO2002/057287. Briefly, 50 μL reactions containing 20 mM HEPES (pH 7.3), 7.5 mM DTT, 20 units/mL RNasIN, 1 μM each of ATP, GTP, UTP and CTP, 20 μCi/mL [^33P]-CTP, 10 mM MgCl2, 60 mM NaCl, 100 μg/ml BSA, 0.021 μM DCoH heteropolymer RNA template and 5 nM NS5B (1b-BKΔ55) enzyme were incubated at room temperature for 1 hour. Assay was terminated by the addition of 500 mM EDTA (50 μL). The reaction mixture was transferred to a Millipore DE81 filter plate and the incorporation of labeled CTP was determined using Packard TopCount. Compound IC50 values were calculated from experiments with 10 serial 3-fold dilutions of the inhibitor in duplicate.

HCV replicon (1b) = assay: Cell-based HCV replicon assay; conditions: replicon cells, 3-day incubation, replicon RNA by real time PCR (Taqman); read-out: 1b EC50
Description: To measure cell-based anti-HCV activity of selected compounds of the present invention, replicon cells were seeded at 5000 cells/well in 96-well collagen I-coated Nunc plates in the presence of the test compound. Various concentrations of test compound, typically in 10 serial 2-fold dilutions, were added to the assay mixture, with the starting concentration ranging from 250 μM to 1 μM. The final concentration of dimethylsulfoxide was 0.5%, fetal bovine serum was 5%, in the assay media. Cells were harvested on day 3 by the addition of 1× cell lysis buffer (Ambion cat #8721). The replicon RNA level was measured using real time PCR (Taqman assay). The amplicon was located in 5B. The PCR primers were: 5B.2F, ATGGACAGGCGCCCTGA (SEQ ID. NO. 1); 5B.2R, […] (SEQ ID. NO. 2); the probe sequence was FAM-labeled CACGCCATGCGCTGCGG (SEQ ID. NO. 3). GAPDH RNA was used as endogenous control and was amplified in the same reaction as NS5B (multiplex PCR) using primers and VIC-labeled probe recommended by the manufacturer (PE Applied Biosystem). The real-time RT-PCR reactions were run on ABI PRISM 7900HT Sequence Detection System using the following program: 48° C. for 30 minutes, 95° C. for 10 minutes, 40 cycles of 95° C. for 15 sec, 60° C. for 1 minute. The ΔCT values (CT5B-CTGAPDH) were plotted against the concentration of test compound and fitted to the sigmoid dose-response model using XLfit4 (MDL). EC50 was defined as the concentration of inhibitor necessary to achieve ΔCT=1 over the projected baseline; EC90 the concentration necessary to achieve ΔCT=3.2 over the baseline. Alternatively, to quantitate the absolute amount of replicon RNA, a standard curve was established by including serially diluted T7 transcripts of replicon RNA in the Taqman assay. All Taqman reagents were from PE Applied Biosystems. Such an assay procedure was described in detail in e.g. Malcolm et al., Antimicrobial Agents and Chemotherapy 50: 1013-1020 (2006).

[2] = tested on: Huh 7 hepatoma cells containing the subgenomic HCV replicon; assay: Cytotoxicity (MTS assay or GAPDH RNA readout); type: cell-based
Description: The effect of the nucleoside derivatives on the proliferation and metabolism of Huh 7 hepatoma cells containing the subgenomic HCV replicon was measured using the MTS assay. Briefly, cells were seeded and dosed with compounds exactly as described in Example 13 above, for replicon EC50 determination. After a 3-day compound incubation period, the MTS assay was performed in accordance with the manufacturer's protocol for the CellTiter 96 Aqueous One Solution Cell Proliferation Assay (Promega, Catalog #G358). Alternatively, after a 3-day compound incubation, the amount of glyceraldehyde-3-phosphate dehydrogenase (GAPDH) RNA in replicon-containing Huh 7 cells was determined using qRT-PCR. CC50 values were derived from 10 serial 2-fold dilutions of the inhibitor in duplicate that yielded 50% inhibition of the MTS or GAPDH RNA readout by comparison with cells treated with vehicle control.

`C[C@@H](OP(=O)(O)OP(=O)(O)OP(=O)(O)O)[C@H]1O[C@@H](n2ccc3c(N)ncnc32)[C@](C)(O)[C@@H]1O` [Compound 36] showed an IC50 [1] of 65 µM.

With `CC(OP(=O)(O)OP(=O)(O)OP(=O)(O)O)[C@H]1O[C@@H](n2ccc3c(N)ncnc32)[C@](C)(F)[C@@H]1O` (some centres unmarked) [Compound 15] the IC50 [1] was > 20 µM.

For `C[C@H](OP(=O)(O)OP(=O)(O)OP(=O)(O)O)[C@H]1O[C@@H](n2ccc3c(N)ncnc32)[C@](C)(O)[C@@H]1O` [Compound 37], the IC50 [1] was 40 µM.

For `CC(C)(O)[C@H]1O[C@@H](n2ccc3c(N)ncnc32)[C@](C)(O)[C@@H]1O` [Compound 31], the EC50 (HCV replicon (1b)) was > 100 µM and the CC50 [2] was > 100 µM.
